Tests used:
[1] = system: Rattus norvegicus; assay: Effect on behavioural activity in rat assessed as cocaine-induced lever response at 2.5 mg/kg, po pretreated with cocaine for 180 mins by drug-discrimination studies; type: functional
[2] = system: Rattus norvegicus; assay: Effect on behavioural activity in rat assessed as cocaine-induced lever response at 2.5 mg/kg, po pretreated with cocaine for 360 mins by drug-discrimination studies; type: functional
[3] = system: Rattus norvegicus; assay: Effect on behavioural activity in rat assessed as cocaine-induced lever response at 25 mg/kg, po pretreated with cocaine for 45 mins by drug-discrimination studies; type: functional
[4] = system: Rattus norvegicus; assay: Effect on behavioural activity in rat assessed as cocaine-induced lever response at 5 mg/kg, po pretreated with cocaine for 180 mins by drug-discrimination studies; type: functional
[5] = system: Rattus norvegicus; assay: Effect on behavioural activity in rat assessed as cocaine-induced lever response at 10 mg/kg, po pretreated with cocaine for 360 mins by drug-discrimination studies; type: functional
[6] = system: Mus musculus; assay: Antidepressant activity in ip dosed mouse assessed as stimulation of locomotor activity relative to cocaine; type: functional
[7] = system: Rattus norvegicus; assay: Effect on behavioural activity in rat assessed as cocaine-induced lever response at 25 mg/kg, ip pretreated with cocaine for 30 mins by drug-discrimination studies; type: functional; conditions: route intraperitoneal
[8] = system: Rattus norvegicus; assay: Effect on behavioural activity in ip dosed rat assessed as cocaine-induced lever response pretreated with cocaine by drug-discrimination studies; type: functional
[9] = system: Rattus norvegicus; assay: Effect on behavioural activity in rat assessed as cocaine-induced lever response at 2.5 mg/kg, po pretreated with cocaine for 90 mins by drug-discrimination studies; type: functional
[10] = system: Rattus norvegicus; assay: Effect on behavioural activity in po dosed rat assessed as cocaine-induced lever response pretreated with cocaine by drug-discrimination studies; type: functional
[11] = system: Mus musculus; assay: Antidepressant activity in ip dosed mouse assessed as time to reach peak stimulation of locomotor activity; type: functional
[12] = system: Rattus norvegicus; assay: Effect on behavioural activity in rat assessed as cocaine-induced lever response at 5 mg/kg, po pretreated with cocaine for 90 mins by drug-discrimination studies; type: functional
[13] = system: Rattus norvegicus; assay: Effect on behavioural activity in rat assessed as cocaine-induced lever response at 25 mg/kg, po pretreated with cocaine for 180 mins by drug-discrimination studies; type: functional
[14] = system: Rattus norvegicus; assay: Effect on behavioural activity in rat assessed as cocaine-induced lever response at 5 mg/kg, po pretreated with cocaine for 360 mins by drug-discrimination studies; type: functional
[15] = system: Rattus norvegicus; assay: Effect on behavioural activity in rat assessed as cocaine-induced lever response at 10 mg/kg, po pretreated with cocaine for 90 mins by drug-discrimination studies; type: functional
[16] = system: Rattus norvegicus; assay: Effect on behavioural activity in rat assessed as cocaine-induced lever response at 25 mg/kg, po pretreated with cocaine for 90 mins by drug-discrimination studies; type: functional
[17] = system: Rattus norvegicus; assay: Effect on behavioural activity in rat assessed as cocaine-induced lever response at 2.5 mg/kg, po pretreated with cocaine for 45 mins by drug-discrimination studies; type: functional
[18] = system: Mus musculus; assay: Antidepressant activity in ip dosed mouse assessed as duration of locomotor activity; type: functional
[19] = system: Rattus norvegicus; assay: Effect on behavioural activity in rat assessed as cocaine-induced lever response at 1 mg/kg, ip pretreated with cocaine for 30 mins by drug-discrimination studies; type: functional; conditions: route intraperitoneal
[20] = system: Rattus norvegicus; assay: Effect on behavioural activity in rat assessed as cocaine-induced lever response at 10 mg/kg, ip pretreated with cocaine for 30 mins by drug-discrimination studies; type: functional; conditions: route intraperitoneal
[21] = system: Rattus norvegicus; assay: Effect on behavioural activity in rat assessed as cocaine-induced lever response at 10 mg/kg, po pretreated with cocaine for 45 mins by drug-discrimination studies; type: functional
[22] = system: Mus musculus; assay: Antidepressant activity in ip dosed mouse assessed as stimulation of locomotor activity; type: functional
[23] = system: Rattus norvegicus; assay: Effect on behavioural activity in rat assessed as cocaine-induced lever response at 5 mg/kg, ip pretreated with cocaine for 30 mins by drug-discrimination studies; type: functional; conditions: route intraperitoneal
[24] = system: Rattus norvegicus; assay: Effect on behavioural activity in rat assessed as cocaine-induced lever response at 25 mg/kg, po pretreated with cocaine for 360 mins by drug-discrimination studies; type: functional
[25] = system: Rattus norvegicus; assay: Effect on behavioural activity in rat assessed as cocaine-induced lever response at 10 mg/kg, po pretreated with cocaine for 180 mins by drug-discrimination studies; type: functional
[26] = system: Rattus norvegicus; assay: Effect on behavioural activity in rat assessed as cocaine-induced lever response at 2.5 mg/kg, ip pretreated with cocaine for 30 mins by drug-discrimination studies; type: functional; conditions: route intraperitoneal
[27] = system: Rattus norvegicus; assay: Effect on behavioural activity in rat assessed as cocaine-induced lever response at 5 mg/kg, po pretreated with cocaine for 45 mins by drug-discrimination studies; type: functional
[28] = system: Rattus norvegicus; assay: Effect on behavioural activity in rat assessed as cocaine-induced lever response at 25 mg/kg, ip pretreated with cocaine for 15 mins by drug-discrimination studies; type: functional; conditions: route intraperitoneal
[29] = system: Rattus norvegicus; assay: Effect on behavioural activity in rat assessed as cocaine-induced lever response at 50 mg/kg, po pretreated with cocaine for 360 mins by drug-discrimination studies; type: functional
[30] = system: Rattus norvegicus; assay: Effect on behavioural activity in rat assessed as cocaine-induced lever response at 10 mg/kg, ip pretreated with cocaine for 15 mins by drug-discrimination studies; type: functional; conditions: route intraperitoneal
[31] = system: Rattus norvegicus; assay: Effect on behavioural activity in rat assessed as cocaine-induced lever response at 50 mg/kg, po pretreated with cocaine for 180 mins by drug-discrimination studies; type: functional
[32] = system: Rattus norvegicus; assay: Effect on behavioural activity in rat assessed as cocaine-induced lever response at 2.5 mg/kg, ip pretreated with cocaine for 15 mins by drug-discrimination studies; type: functional; conditions: route intraperitoneal
[33] = system: Rattus norvegicus; assay: Effect on behavioural activity in rat assessed as cocaine-induced lever response at 50 mg/kg, po pretreated with cocaine for 90 mins by drug-discrimination studies; type: functional
[34] = system: Rattus norvegicus; assay: Effect on behavioural activity in rat assessed as cocaine-induced lever response at 50 mg/kg, po pretreated with cocaine for 45 mins by drug-discrimination studies; type: functional
[35] = system: Rattus norvegicus; assay: Effect on behavioural activity in rat assessed as cocaine-induced lever response at 50 mg/kg, ip pretreated with cocaine for 15 mins by drug-discrimination studies; type: functional; conditions: route intraperitoneal
[36] = system: Rattus norvegicus; assay: Effect on behavioural activity in rat assessed as cocaine-induced lever response at 1 mg/kg, ip pretreated with cocaine for 15 mins by drug-discrimination studies; type: functional; conditions: route intraperitoneal
[37] = system: Rattus norvegicus; assay: Effect on behavioural activity in rat assessed as cocaine-induced lever response at 5 mg/kg, ip pretreated with cocaine for 15 mins by drug-discrimination studies; type: functional; conditions: route intraperitoneal
[38] = system: Rattus norvegicus; assay: Effect on behavioural activity in rat assessed as cocaine-induced lever response at 100 mg/kg, po pretreated with cocaine for 360 mins by drug-discrimination studies; type: functional
[39] = system: Rattus norvegicus; assay: Effect on behavioural activity in rat assessed as cocaine-induced lever response at 100 mg/kg, po pretreated with cocaine for 180 mins by drug-discrimination studies; type: functional
[40] = target: Sodium-dependent noradrenaline transporter (Homo sapiens, UniProt P23975); assay: Displacement of [125I]RTI55 from cloned human NET expressed in HEK293 cells; type: cell-based
[41] = target: Sodium-dependent serotonin transporter (Homo sapiens, UniProt P31645); assay: biochemical; type: cell-based, HEK293
[42] = system: Rattus norvegicus; assay: Effect on behavioural activity in rat assessed as cocaine-induced lever response at 100 mg/kg, po pretreated with cocaine for 45 mins by drug-discrimination studies; type: functional
[43] = system: Rattus norvegicus; assay: Effect on behavioural activity in rat assessed as cocaine-induced lever response at 100 mg/kg, po pretreated with cocaine for 90 mins by drug-discrimination studies; type: functional

Chain of Sodium-dependent serotonin transporter (P31645 whole entry): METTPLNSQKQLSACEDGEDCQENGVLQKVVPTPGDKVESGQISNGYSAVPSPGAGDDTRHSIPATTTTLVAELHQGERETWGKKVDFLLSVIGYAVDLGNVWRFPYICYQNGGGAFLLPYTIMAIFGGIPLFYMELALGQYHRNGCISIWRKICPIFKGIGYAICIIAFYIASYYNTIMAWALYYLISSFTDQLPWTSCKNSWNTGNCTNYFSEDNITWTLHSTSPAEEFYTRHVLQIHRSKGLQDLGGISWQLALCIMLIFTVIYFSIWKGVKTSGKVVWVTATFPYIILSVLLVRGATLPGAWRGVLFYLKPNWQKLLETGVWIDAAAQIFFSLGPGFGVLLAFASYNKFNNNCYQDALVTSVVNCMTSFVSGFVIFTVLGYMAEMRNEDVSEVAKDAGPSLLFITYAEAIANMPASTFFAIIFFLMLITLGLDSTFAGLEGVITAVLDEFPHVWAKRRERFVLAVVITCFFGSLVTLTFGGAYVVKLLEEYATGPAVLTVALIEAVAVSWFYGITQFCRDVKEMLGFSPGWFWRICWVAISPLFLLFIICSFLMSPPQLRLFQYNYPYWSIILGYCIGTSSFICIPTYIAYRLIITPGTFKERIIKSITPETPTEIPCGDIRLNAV
Chain of Sodium-dependent noradrenaline transporter (P23975 whole entry): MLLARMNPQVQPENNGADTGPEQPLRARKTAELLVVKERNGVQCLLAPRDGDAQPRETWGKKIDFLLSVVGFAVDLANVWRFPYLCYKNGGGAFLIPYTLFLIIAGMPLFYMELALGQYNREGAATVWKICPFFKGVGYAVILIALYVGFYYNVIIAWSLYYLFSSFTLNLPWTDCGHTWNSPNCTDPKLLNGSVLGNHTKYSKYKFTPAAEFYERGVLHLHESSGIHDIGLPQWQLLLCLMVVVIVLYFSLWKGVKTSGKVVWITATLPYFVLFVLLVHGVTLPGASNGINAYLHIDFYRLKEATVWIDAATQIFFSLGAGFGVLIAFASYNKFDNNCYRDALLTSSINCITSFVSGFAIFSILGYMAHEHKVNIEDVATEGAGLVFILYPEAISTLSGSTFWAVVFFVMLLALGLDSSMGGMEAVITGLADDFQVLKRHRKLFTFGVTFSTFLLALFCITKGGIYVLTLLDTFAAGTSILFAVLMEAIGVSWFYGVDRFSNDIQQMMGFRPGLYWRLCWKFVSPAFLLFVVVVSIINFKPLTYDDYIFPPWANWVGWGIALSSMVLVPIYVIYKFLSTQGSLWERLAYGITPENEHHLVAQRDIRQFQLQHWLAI

Row | Structure (SMILES) | Activity [3] [%] | Activity [4] [%] | Activity [6] [%] | ED50 [8] [mg/kg] | ED50 [10] [mg/kg] | Time to peak locomotor stimulation [11] [min] | Activity [12] [%] | Activity [13] [%] | Activity [14] [%] | Activity [15] [%] | Activity [16] [%] | Time [18] [min] | Activity [21] [%] | ED50 [22] [mg/kg] | Activity [24] [%] | Activity [25] [%] | Activity [27] [%] | Activity [29] [%] | Activity [31] [%] | Activity [34] [%] | also measured
1 | CCCC(NC(C)(C)C)C(=O)c1ccc(Cl)c(Cl)c1 (centres undefined) | 58 | 0 | 93 | 3.9 | 22.8 | 0 | 13 | 17 | 0 | 0 | 84 | 470 | 33 | 38 | 0 | 5 | 0 | – | – | – | Activity [1]: 0%; Activity [2]: 0%; Activity [5]: 0%; Activity [7]: 100%; Activity [9]: 0%; Activity [17]: 17%; Activity [19]: 0%; Activity [20]: 33.3%; Activity [23]: 33.3%; Activity [26]: 41.8%
2 | CC(NC(C)(C)C)C(=O)c1cccc(Cl)c1 (centres undefined) [BUPROPION] | 50 | 2.5 | 87 | – | 22.8 | 0 | 0 | 22 | – | 1 | 0 | 130 | 17 | 5.5 | 1 | 0 | 33 | 0 | 17 | 83 | Activity [5]: 0%; Activity [28]: 66.3%; Activity [30]: 67.1%; Activity [32]: 0.7%; Activity [33]: 50%; Activity [35]: 66.7%; Activity [36]: 24.1%; Activity [37]: 0%
3 | CC(NC(C)(C)C)C(=O)c1cccc(F)c1 (centres undefined) | 49 | 0 | 80 | 11.6 | 25.3 | 0 | 0 | 0 | 0 | 0 | 16 | 150 | 17 | 17.5 | 0 | 33 | 17 | 0 | 18 | 67 | Activity [38]: 50%; Activity [39]: 83%; Activity [28]: 100%; Activity [30]: 50.2%; Ki [40]: > 10 µM; Activity [32]: 17.6%; Activity [33]: 33%; Ki [41]: > 10 µM; Activity [42]: 95%; Activity [43]: 75%; Activity [37]: 0%
4 | CC(NC1CCCC1)C(=O)c1cccc(Cl)c1 (centres undefined) | 67 | 0 | 107 | 10.9 | 6.6 | 0 | 0 | – | 0 | 33 | 67 | 330 | 60 | 12.3 | 34 | 0 | 50 | 16 | 33 | 100 | Activity [7]: 83.4%; Activity [17]: 17%; Activity [19]: 0.9%; Activity [20]: 66.2%; Ki [41]: > 10 µM; Activity [23]: 0%; Activity [26]: 23.9%
5 | CCC(NC(C)(C)C)C(=O)c1ccc(Cl)c(Cl)c1 (centres undefined) | 50 | 0 | 69 | 6.3 | 15.2 | 0 | – | 2 | 0 | 0 | 33 | 60 | 34 | 38 | 33 | 0 | 17 | 16 | 50 | 83 | Activity [1]: 50%; Activity [2]: 17%; Activity [5]: 2%; Activity [7]: 100%; Activity [9]: 17%; Activity [17]: 33%; Activity [19]: 0%; Activity [33]: 67%; Activity [23]: 16.7%; Activity [26]: 33.3%

Source: ChEMBL document CHEMBL1156106 (J Med Chem, 2009)
